Data taken from paper PMC5691623 (Viruses, 2017).

Tested on: SFV vector VA7-mCherry
Assay: Live microscopy of SFV infection in Pa02C pancreatic cancer cells
Assay type: cell-based, Semliki Forest virus
Settings: 1 µM, low moi (0.01), 96 h

Compound: CC1(C)CCC(c2ccc(Cl)cc2)=C(CN2CCN(c3ccc(C(=O)NS(=O)(=O)c4ccc(N[C@H](CCN5CCOCC5)CSc5ccccc5)c(S(=O)(=O)C(F)(F)F)c4)cc3)CC2)C1 [ABT-263]
- effect on replication and spread of SFV: attenuated the replication and spread of the virus
